Test results published in article PMC9115112, “A2B adenosine receptor antagonists rescue lymphocyte activity in adenosine-producing patient-derived cancer models” (Journal for Immunotherapy of Cancer, 2022).

Legend:
Type in all cases: cell-based, human
[1] = tested on: autologous TILs and patient-derived sarcoma spheroids; assay: Spheroid infiltration by autologous TILs (real-time imaging and flow cytometry); conditions: antagonist 12 µM, 3 days
Experimental: Spheroids were prepared using patient-derived sarcoma cell lines. 1×10^4 cells were seeded per well in 96-well ultra-low attachment plate with DMEM-F12 media containing 20% FBS and 1% PS for 5 days. 3×10^4 CSFE-labeled autologous expanded TILs, at Effector:target ratio of 3:1, were added to the spheroid at day five with A2BAR antagonism treatment at 12 µM. After 3 days, spheroid was removed and split into two groups—IN and OUT. […] Spheroids were washed with PBS at least two times. GentleMACS tumor dissociation kit (Miltenyi Biotec) was used to digest the spheroids for FC analysis.
(§1) Brightfield and phase contrast images under 4X objective were acquired every 6 hours on IncuCyte S3 system (Essen BioScience). For breast cancer patient-derived spheroid culture, 1×10^4 cells per well were seeded with A2BAR antagonist at 12 µM treatment for 6 days real time imaging. For spheroid infiltration, after the addition of CSFE-labeled autologous expanded TILs and treatment with A2BAR antagonist at 12 µM, green fluorescence images were acquired for 3 days. All spheroid invasion analysis was performed using top hat segmentation with IncuCyte software.
Cell surface was stained with mouse monoclonal antihuman antibodies against CD3, CD4, CD8, CD45RA, CD56 and CD19 listed in online supplemental table 1. Cell surface antibodies and live/dead (L/D) marker were incubated with samples at 4°C for 20 min after washing two times with flow cytometry buffer containing 5% FBS in PBS. For spheroid infiltrated TIL phenotyping, digested IN and OUT spheroids were stained with cell surface marker and analyzed on NovoCyte (ACEA Bioscience) with the use of FlowJo software (Tree Star) by gating single cell based on forward and side scatters. A representative gating strategy for CD8 naïve T cells is shown in online supplemental figure 3A. Compensated flow cytometry standard (FCS) files with only live cells were concatenated for downstream tSNE analysis using the ‘cytofkit’ R package (https://github.com/JinmiaoChenLab/cytofkit).
Figure 6 Infiltration of TILs into autologous patient-derived sarcoma spheroids after A2BAR antagonist treatment. (A) Representative real-time imaging of spheroid TIL infiltration over 3 days under 4× objective. Green areas demarcate CFSE-labeled TILs infiltrated into the red boundary tumor spheroid. (B) Relative TIL infiltration into autologous spheroids (n=8 donors) measured by flow cytometer. Antagonist 12 µM was added with CSFE-labeled TILs after spheroid formation on day five. (C) Representative flow cytometry plot of CFSE positive TILs in CD73+ tumor spheroid. (D) tSNE analysis and (E) annotated pie chart of TILs within (IN) and outside of (OUT) the spheroids without treatment (n=8 donors, indicated within the pie chart). Wilcoxon Rank Sum test was performed to compare the various IN vs OUT adhesion markers. Expression of (F) CD3 T cells, (G) CD49a+ CD103+ among CD8 T cells and (H) CD69 MFI among CD4 T cells IN and OUT of the spheroids without treatment (n=8 donors). (I) Relative CD8/CD4 TIL ratio IN the spheroids. Differential expression of relative (J–L). CD49a+ CD103+ cells IN the spheroids (n=8 donors) of CD3, CD8, and CD4 TILs. Antagonist 12 µM was added for J–L. Outlier is presented as diamond shape and defined by Tukey’s rule, which is not included in statistical analysis. Box plots with minimum, first quartile, median, third quartile, and maximum are presented. Unpaired and non-parametric statistical analysis—Mann-Whitney test was performed against untreated control with *p<0.05, **p<0.01, ***p<0.001, and ****p<0.0001. CFSE, carboxyfluorescein succinimidyl ester; TIL, tumor infiltrating lymphocyte; tSNE, T-distributed stochastic neighboring embedding. TEXT PRINTED IN THE PICTURE: (C) ISAM-R56A: TILs 13.0 DOUBTS OF THE COPYIST ABOUT THIS PICTURE: Panel C, ISAM-R56A, TILs: the print is small, 13.0 could be 13.8 or 13.6 / Panel C also prints a gate label 'TILs 3.17' for the Untreated control. […]

[2] = tested on: breast cancer patient-derived spheroid cultures; assay: Cell viability assay (Cell-Titer Glo) on breast cancer patient-derived spheroid cultures; conditions: 4 days exposure
Experimental: From breast cancer single cell suspension, 3×10^3 cells were seeded and cultured in an ultra-low attachment 384-well plate (Corning) with DMEM-F12 media (Thermo Fisher Scientific) containing 20% FBS and 1% PS. Treatment with A2BAR antagonist at various concentrations are stated in the Results section. After 4 days, Cell-Titer Glo reagent (Promega) was used to measure cell viability in accordance to the manufacturer’s instruction. EnSpire Multilabel Reader (PerkinElmer) was used to read the luminescence.
(§2) Figure 2 Antitumor effect of A2BAR antagonists on breast cancer patient-derived spheroid cultures. (A) Relative cell viability to untreated antagonist control spheroid cultures (n=3, mean±SD) measured by Cell-Titer Glo assay. (B) Representative real time imaging of spheroid cultures over 6 days under 4X objective, with untreated (first column) or added 12 µM concentration respective of A2BAR antagonists indicated. Red mask demarcates area with cells surrounding the spheroid. Green line indicates estimated diameter of spheroid body. (C) Relative area of the representative spheroid growth (as shown in B) normalized to day 1. Statistical analysis—2-way (A) and 1-way (C) ANOVA with Dunnett’s multiple comparisons to untreated antagonist control was performed with *p<0.05, **p<0.01, ***p<0.001, and ****p<0.0001.

[3] = tested on: breast cancer patient-derived spheroid cultures; assay: Real-time imaging (IncuCyte) of breast cancer patient-derived spheroid growth; conditions: middle antagonist concentration (12 µM in figure 2), 6 days real-time imaging
Experimental: as §1, §2

SMILES | TIL infiltration into autologous sarcoma spheroids vs untreated (real-time imaging) ([1]; n=8 donors) | Relative cell viability of breast cancer spheroids vs untreated control ([2]; n=3) | Spheroid growth over time (relative area) vs untreated control [3] | Median increased TIL infiltration vs untreated ([1]; n=8 donors, not statistically significant) [%] | Relative cell viability of breast cancer spheroids vs untreated control ([2]; n=3, listed as ISAM–M89A) | TIL infiltration into spheroids by flow cytometry (CSFE positive, CD73 negative TILs) [1] | TIL infiltration into autologous sarcoma spheroids vs untreated (real-time imaging) ([1]; n=8 donors, listed as ISAM–R56A)
CC1=C(C(=O)OC(C)C)C(c2ccco2)n2c(nc3ccccc32)N1 (stereo not drawn) [ISAM-140, isopropyl 4-(furan-2-yl)−2-methyl-1,4-dihydrobenzo[4 5] imidazo[1,2 a]pyrimidine-3-carboxylate] | did not have any effect | significantly reduced | significantly affected the spheroid growth over time | – | – | – | –
CC1=C(C(=O)OC(C)C)C(c2ccoc2)n2c(nc3cc(Cl)ccc32)N1 (stereo not drawn) [ISAM-M89A] | – | more pronounced effect | significantly affected the spheroid growth over time | 7 | significantly reduced | – | –
CC1=C(C(=O)OC(C)C)C(c2ccco2)n2c(nc3ccccc32)N1Cc1ccccc1F (stereo not drawn) [ISAM-R56A] | overall improved TIL infiltration | significantly reduced | significantly affected the spheroid growth over time | – | – | significantly enhanced TIL infiltration | improved TILs infiltration
